Test results reported in patent US5166219A, “Systemic anti-inflammatory treatment” (Lidak Pharmaceuticals, priority 1991, dated 1992).
Like-named read-outs stand apart in the source and are kept apart here.

Assays:
[1] = tested on: physical performance of athletes; details: vegetable oil bases, oral ingestion; U.S. Pat. No. 3,031,376; cited from earlier work
[2] = tested on: LP-BM 5 MuLV ecotropic virus; assay: Percent virus inhibition / plaque count of LP-BM 5 MuLV ecotropic virus using XC indicator cells; type: cell-based; details: for inhibition at 0.5 µg/mL / inhibition at 5 µg/mL / inhibition at 50 µg/mL / inhibition at 500 µg/mL: read-out: % decrease
Description: A composition a composition consisting essentially of aliphatic alcohols having 22 carbons in the aliphatic chain in micelle suspension, […], was introduced into cultures of LP-BM 5 MuLV ecotropic virus, […], and the percent of virus inhibition, as compared with controls continuing only PBS buffer, indicated by cell-fusion activity and cell plaque count, using XC indicator cells (Virology 42:1136, 1970), was determined.
The effect of the C-20 to C-26 alcohols of this invention on ecotropic virus was further confirmed and compared with AZT.

growth of plants = details: Ries et al. and others; cited from earlier work
inflammatory disorders = details: Clark, U.S. Pat. No. 4,670,471; cited from earlier work
[3] = tested on: collagen-induced arthritis; assay: Treatment of collagen-induced arthritis (CIA) in DBA/1 mice; type: in vivo
Description: DBA/1 mice were injected intradermally at the base of the tail on days zero and 28 with 20 μg chick type II collagen emulsified in CFA. The mammals were followed for clinical signs of arthritis, i.e., joint erythema, edema, and loss of function. The data illustrated in FIG. 1 were derived from a series of 5 independently conducted experiments which show the clinical course of collagen-induced arthritis (CIA) in DBA/1 mice immunized with chick type II collagen/CFA. Male DBA/1 mice were immunized with 20 μg chick type Ii collagen emulsified in CFA on days zero and 28. The mammals were followed for a total of 70 days for clinical signs of arthritis, joint erythema, edema, and loss of function. That data represent the means and standard deviations of incidence of arthritis and spontaneous remission from 5 separate experiments using 10-15 mice per experiment. p As noted by others, Stuart, J. M., Townes, A. S., and Knag, A. H., Ann. Rev. Immunol. […] Histologic analysis (not shown) confirmed extensive mononuclear infiltration and pannus formation as reported by others using similar techniques, Wooley, P. H., Luthra, H. S., Stuart, J. M., and David, C. S., J. Exp. Med. 154:688-700, 1981. […] We used a four point scoring system where zero is a normal limb, 1 being marginal swelling and erythema, 2 being progressively more severe swelling, erythema, and lack of flexibility, and 3 being severe erythema, edema, and often complete fusion of the bone elements and lack of flexibility. […] S., J. Exp. Med. 154:688-700, 1981.
Male DBA/1 (obtained from Jackson Laboratories, Bar Harbor, Me.) were used at 8 to 12 weeks of age. The mice were immunized intradermally at the base of the tail on day zero and again on day 28 with 20 μg chick type II collagen, prepared exactly as described by others, Trentham, D. E., Townes, A. S., and Kang, A. H., J. Exp. Med. 146:857-858, 1977, or obtained commercially (Genzyme, Boston, Ma.), emulsified in complete Freund's adjuvant (Difco, Ann Arbor, Mi.). The mammals were examined visually twice weekly for arthritic signs, swollen and erythremic limbs. Induction of CIA-associated histopathology was assessed by evaluation of paraffin sections of normal limbs, and limbs obtained from mammals with various stages of the disease essentially as described by others, Wooley, P. H., Luthra, H. S., Stuart, J. M., and David, C. S., J. Exp. Med 154:688-700, 1981.
n-Docosanol was suspended in Pluronic F68® (Trademark of BASF Corp; chemical composition, poloxamer 188, a non-ionic detergent block co-polymer of propylene oxide and ethylene oxide) as follows: Pluronic F-68 (mw 8,400; BASF Corp., Parsippany, N.J.) was diluted to 10 mg/ml in warm (37° C.) Dulbecco's high glucose modified Eagle's medium (DMEM; Whittaker Bioproducts, Walkersville, Md.), and the solution then heated to 50° C. n-Docosanol was added at 10 mg/ml to the Pluronic F-68 in DMEM and the solution further heated to 86° C. wile sonicating (Branson 450 sonifier) for 21 minutes at an initial output of 65 watts. The resulting stock suspension contained 10 mg/ml of n-docosanol particles of 0.03-0.3 microns. The corresponding control solution was prepared identically except the n-docosanol was excluded.
Adult DBA/1 mice were immunized with collagen/CFA as described in […], and on day 44 after primary immunization the mammals were given a clinical score and placed in one of three groups. […] One group was treated once daily with 5 mg of n-docosanol as indicated in FIG. 3 (0.5 ml of 10 mg/ml n-docosanol in 10 mg/ml Pluronic F-68), half of which was given intravenously and the other half given subcutaneously. Another group was treated with 5 mg Pluronic F-68 control in a similar manner. The last group was left untreated.
The effects of n-docosanol on CIA in DBA/1 Mice are depicted in FIG. 3. Adult DBA/1 male mice were immunized with collagen/CFA as described in the legend to FIG. 2. […]

## CCCCCCCCCCCCCCCCCCCCCCCCO [tetracosanol]
[1]
  physical performance of athletes: improved physical performance of athletes

## CCCCCCCCCCCCCCCCCCCCCCCCCCO [hexacosanol]
[1]
  physical performance of athletes: improved physical performance of athletes

## Cc1cn([C@H]2C[C@H](N=[N+]=[N-])[C@@H](CO)O2)c(=O)[nH]c1=O [AZT, reference compound]
[2]; 0.5 μg/ml, 10^2 input
  Plaques/culture: 34 ± 3 Plaques/culture
  inhibition at 0.5 µg/mL: 69%
[2]; 0.5 μg/ml, 10^3 input
  Plaques/culture: 657 ± 24 Plaques/culture
  inhibition at 0.5 µg/mL: 14%
[2]; 5 μg/ml, 10^2 input
  Plaques/culture: 43 ± 3 Plaques/culture
  inhibition at 5 µg/mL: 60%
[2]; 5 μg/ml, 10^3 input
  Plaques/culture: 382 ± 59 Plaques/culture
  inhibition at 5 µg/mL: 50%
[2]; 50 μg/ml, 10^2 input
  Plaques/culture: 23 ± 5 Plaques/culture
  inhibition at 50 µg/mL: 79%
[2]; 50 μg/ml, 10^3 input
  Plaques/culture: 131 ± 10 Plaques/culture
  inhibition at 50 µg/mL: 83%
[2]; 500 μg/ml, 10^2 input
  Plaques/culture: 5 ± 3 Plaques/culture
  inhibition at 500 µg/mL: 95%
[2]; 500 μg/ml, 10^3 input
  Plaques/culture: 43 ± 6 Plaques/culture
  inhibition at 500 µg/mL: 94%

## CCCCCCCCCCCCCCCCCCCCCCCCCCCCCCO [1-triacontanol]
[1]
  physical performance of athletes: improved physical performance of athletes
Growth of plants
  plant growth activity: stimulates the growth of plants
Inflammatory disorders
  anti-inflammatory effectiveness: the aerosol carrier destroyed the effect of triacontanol

## CCCCCCCCCCCCCCCCCCCCCCCCCCCCO [octacosanol]
[1]
  physical performance of athletes: improved physical performance of athletes
Growth of plants
  plant growth activity: do not possess such physiological activity, or at least have very much less physiological activity in plant growth

## CCCCCCCCCCCCCCCCCCCCCCO [C-22 Alcohol, n-docosanol]
[2]; 0.5 μg/ml, 10^2 input
  Plaques/culture: 110 ± 2 Plaques/culture
  inhibition at 0.5 µg/mL: 19%
[2]; 0.5 μg/ml, 10^3 input
  Plaques/culture: 703 ± 88 Plaques/culture
  inhibition at 0.5 µg/mL: 14%
[2]; 5 μg/ml, 10^2 input
  Plaques/culture: 84 ± 12 Plaques/culture
  inhibition at 5 µg/mL: 36%
[2]; 5 μg/ml, 10^3 input
  Plaques/culture: 561 ± 50 Plaques/culture
  inhibition at 5 µg/mL: 31%
[2]; 50 μg/ml, 10^2 input
  Plaques/culture: 72 ± 24 Plaques/culture
  inhibition at 50 µg/mL: 45%
[2]; 50 μg/ml, 10^3 input
  Plaques/culture: 562 ± 11 Plaques/culture
  inhibition at 50 µg/mL: 31%
[2]; 500 μg/ml, 10^2 input
  Plaques/culture: 13 ± 2 Plaques/culture
  inhibition at 500 µg/mL: 90%
[2]; 500 μg/ml, 10^3 input
  Plaques/culture: 401 ± 5 Plaques/culture
  inhibition at 500 µg/mL: 51%
[2]; C-22 alcohol 0.06 μg/ml, 100 PFU/ml (10^2 input)
  inhibition at 0.06 µg/mL: 7%
[2]; C-22 alcohol 0.6 μg/ml, 100 PFU/ml (10^2 input)
  inhibition at 0.6 µg/mL: 22%
[2]; C-22 alcohol 6 μg/ml, 100 PFU/ml (10^2 input)
  inhibition at 6 µg/mL: 40%
[2]; C-22 alcohol 60 μg/ml, 100 PFU/ml (10^2 input)
  inhibition at 60 µg/mL: 89%
[3]; 24 hours after the first treatment, vs untreated or control-treated, 5 mg once daily, half i.v., half s.c.
  mean clinical score: significant decrease in mean clinical score
[3]; after further regimen of 3 treatments
  P value, decrease in mean clinical score vs untreated: 0.001
[3]; after further regimen of 3 treatments (days 50-52)
  mean clinical score: another significant decrease in mean clinical score
[3]; after further regimen of 3 treatments, Pluronic F-68 control
  P value, decrease in mean clinical score vs control-treated: 0.03
[3]; after primary immunization (3 days after initial treatment)
  day of first complete clinical remission: 47 days
[3]; by day 55 after primary immunization
  clinically normal mammals: 100%
[3]; complete clinical remission
  lag of remission in untreated or control-treated groups behind n-docosanol-treated group: 8 to 9 days
[3]; day 49, 48 hours after the last injection
  mean clinical score: a rise in mean clinical score
[3]; panel B of FIG. 3
  occurrence of remission from CIA: hastened the occurrence of remission from CIA

## CCCCCCCCCCCCCCCCCCCCCCCCCCCCCCCCO [C-32]
Growth of plants
  plant growth activity: do not possess such physiological activity, or at least have very much less physiological activity in plant growth
